# Test results taken from paper PMC6245447, “Effect of Dehydroaltenusin-C12 Derivative, a Selective DNA Polymerase α Inhibitor, on DNA Replication in Cultured Cells” (Molecules, 2008).
# Where two headings read alike, the source gives them in different places.
# Molecular target: T1, DNA polymerase α (calf thymus pol α) (Bos taurus, UniProt A0AAA9TD94)
# T1 construct: gene POLA1; pol α purified from calf thymus
# T1 sequence (A0AAA9TD94 1-1441): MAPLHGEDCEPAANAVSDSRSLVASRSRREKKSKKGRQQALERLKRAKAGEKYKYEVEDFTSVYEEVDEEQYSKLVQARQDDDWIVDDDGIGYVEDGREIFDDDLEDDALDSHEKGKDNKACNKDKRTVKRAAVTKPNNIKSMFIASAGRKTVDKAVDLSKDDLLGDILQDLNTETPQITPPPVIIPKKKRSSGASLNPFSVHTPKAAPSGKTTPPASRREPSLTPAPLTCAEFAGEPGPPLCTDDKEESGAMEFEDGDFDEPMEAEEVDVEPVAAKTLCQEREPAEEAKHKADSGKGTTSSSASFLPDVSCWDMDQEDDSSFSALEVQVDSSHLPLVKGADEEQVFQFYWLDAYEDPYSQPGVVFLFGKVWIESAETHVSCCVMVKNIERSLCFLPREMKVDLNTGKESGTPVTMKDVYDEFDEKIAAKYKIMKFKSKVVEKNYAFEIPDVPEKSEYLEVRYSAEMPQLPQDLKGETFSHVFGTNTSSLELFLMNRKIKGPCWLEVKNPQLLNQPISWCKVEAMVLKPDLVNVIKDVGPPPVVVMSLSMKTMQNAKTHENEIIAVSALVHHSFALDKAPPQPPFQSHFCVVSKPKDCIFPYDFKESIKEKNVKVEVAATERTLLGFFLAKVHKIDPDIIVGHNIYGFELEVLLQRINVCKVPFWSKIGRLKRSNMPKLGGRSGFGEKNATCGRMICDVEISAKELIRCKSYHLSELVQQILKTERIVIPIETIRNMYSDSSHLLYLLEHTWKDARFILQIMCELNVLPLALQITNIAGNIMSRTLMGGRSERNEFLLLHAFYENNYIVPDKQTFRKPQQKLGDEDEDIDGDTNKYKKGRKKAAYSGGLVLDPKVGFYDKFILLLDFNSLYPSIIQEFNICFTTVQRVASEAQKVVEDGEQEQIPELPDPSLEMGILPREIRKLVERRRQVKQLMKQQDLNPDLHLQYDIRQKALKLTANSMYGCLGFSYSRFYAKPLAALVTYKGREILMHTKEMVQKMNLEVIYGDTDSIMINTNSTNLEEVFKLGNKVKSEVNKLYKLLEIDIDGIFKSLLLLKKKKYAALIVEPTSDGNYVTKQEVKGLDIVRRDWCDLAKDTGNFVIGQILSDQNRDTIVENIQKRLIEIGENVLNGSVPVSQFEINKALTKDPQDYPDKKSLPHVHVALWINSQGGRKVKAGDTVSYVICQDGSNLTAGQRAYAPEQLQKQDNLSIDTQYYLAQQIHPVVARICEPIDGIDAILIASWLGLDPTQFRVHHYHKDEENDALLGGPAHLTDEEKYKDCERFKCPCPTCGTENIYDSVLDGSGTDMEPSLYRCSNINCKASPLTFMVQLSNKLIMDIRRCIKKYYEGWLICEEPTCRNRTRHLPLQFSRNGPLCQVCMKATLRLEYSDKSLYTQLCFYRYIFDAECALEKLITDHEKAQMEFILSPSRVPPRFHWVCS
# Test: [3H]-dTTP incorporation polymerase assay on poly(dA)/oligo(dT)[…]-18 with purified pol α
# Format: biochemical
SMILES,IC50 (read-out: IC50) [µM],IC50 [µM]
"COc1cc(O)c2c(c1)C1=CC(=O)C(O)=CC1(C)OC2=O (stereo not drawn) [compound 1, Dehydroaltenusin]",9.9,
"CCCCCCCCCCCCOc1cc(O)c2c(c1)C1=CC(=O)C(O)=CC1(C)OC2=O (stereo not drawn) [compound 2, C12]",1.4,
"C[C@@]1(CO)[C@H](O)CC[C@@]2(C)[C@H]1CC[C@H]1C[C@@H]3C[C@@]12CC[C@]3(O)CO [compound 3, aphidicolin]",,14.5
